pIC50: −log10 of the molar value.
These compounds were tested against recombinant hSSAO (Homo sapiens (Human), UniProt Q16853) (assay: SSAO Activity Assay (MAO-Glo assay kit)). Conditions: 40 μM substrate, 30 mins pre-incubation.
Assay type: biochemical
Procedure: The biological activities of the compounds of the present application can be assessed with methods and assays known in the art. For example, the potency of the compounds of the present application can be evaluated with an SSAO Activity Assay. Briefly, compounds of the present application can be applied to recombinant hSSAO, hMAO-A, and hMAO-B isoforms and the amine oxidase activity of the enzymes are measured after the addition and subsequent oxidation of the luminogenic substrate (e.g., with the MAO-Glo assay kit from Promega). The IC50 can be calculated, for example, by fitting the dose response curve using a 4-parameter non-linear regression routine.
Amine oxidase activity of recombinant hSSAO, hMAO-A, and hMAO-B isoforms are measured using the MAO-Glo assay kit (Promega, V1402). Ten nL test compounds (with DMSO as vehicle, 0.1% v/v for hSSAO, hMAO-A and hMAO-B) were added into assay plates by Echo, and pre-incubated with 5 μL of enzyme for 30 mins at room temperature before the addition of 5 μL of luminogenic substrate. The substrate concentration is 40 μM for human recombinant SSAO, 40 μM for human recombinant MAO-A, and 4 μM for human recombinant MAO-B. The hSSAO and hMAO-A assays were conducted in the MAO-A reaction buffer in the kit, and the MAO-B assay was conducted in the MAO-B reaction buffer. Oxidation of the substrate was conducted for 1 hr, before the addition of detecting reagent according the manufacture's protocol. The IC50 value of the tested compounds was calculated by fitting the dose response curve using a 4-parameter non-linear regression routine.

Chain of recombinant hSSAO (Q16853 whole entry): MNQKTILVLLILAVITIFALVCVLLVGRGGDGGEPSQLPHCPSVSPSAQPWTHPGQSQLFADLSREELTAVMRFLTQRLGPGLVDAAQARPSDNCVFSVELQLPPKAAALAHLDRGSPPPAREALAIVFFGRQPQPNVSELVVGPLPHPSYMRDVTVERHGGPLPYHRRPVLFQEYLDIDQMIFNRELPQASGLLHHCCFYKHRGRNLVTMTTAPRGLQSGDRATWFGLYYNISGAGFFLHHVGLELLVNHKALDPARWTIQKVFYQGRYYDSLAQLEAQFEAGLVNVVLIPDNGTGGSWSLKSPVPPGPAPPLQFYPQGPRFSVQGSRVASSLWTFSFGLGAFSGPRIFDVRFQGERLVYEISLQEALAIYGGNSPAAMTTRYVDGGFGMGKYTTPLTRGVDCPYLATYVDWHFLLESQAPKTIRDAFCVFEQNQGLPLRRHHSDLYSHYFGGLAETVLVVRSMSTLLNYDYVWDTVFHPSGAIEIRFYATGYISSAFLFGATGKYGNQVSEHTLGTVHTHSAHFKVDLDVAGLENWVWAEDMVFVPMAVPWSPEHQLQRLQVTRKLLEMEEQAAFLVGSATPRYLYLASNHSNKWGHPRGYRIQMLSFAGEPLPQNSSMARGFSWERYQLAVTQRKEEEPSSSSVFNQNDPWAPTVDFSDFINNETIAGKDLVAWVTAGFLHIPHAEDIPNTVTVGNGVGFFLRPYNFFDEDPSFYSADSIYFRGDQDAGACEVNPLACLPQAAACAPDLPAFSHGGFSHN

SMILES	pIC50
CC(C)C(=O)N1CCC(C)(CS(=O)(=O)c2ccc(OC/C(=C/F)CN)cc2)CC1 [compound 53, (E)-1-(4-(((4-((2-(aminomethyl)-3-fluoroallyl)oxy)phenyl)sulfonyl)methyl)-4-methylpiperidin-1-yl)-2-methylpropan-1-one]	7.00 to 7.70
NC/C(=C\F)COc1ccc(S(=O)(=O)CC2CCN(C(=O)C3CC3)CC2)c(Cl)c1 [compound 60, (E)-(4-(((4-((2-(aminomethyl)-3-fluoroallyl)oxy)-2-chlorophenyl)sulfonyl)methyl)piperidin-1-yl)(cyclopropyl)methanone]	7.00 to 7.70
NC/C(=C\F)COc1ccc(S(=O)(=O)CC23CCC(C(=O)N4CCC(F)(F)CC4)(CC2)CC3)cc1 [compound 63, (E)-(4-(((4-((2-(aminomethyl)-3-fluoroallyl)oxy)phenyl)sulfonyl)methyl)bicyclo[2.2.2]octan-1-yl)(4,4-difluoropiperidin-1-yl)methanone]	7.00 to 7.70
CN(C(=O)C1CC1)C12CCC(CS(=O)(=O)c3ccc(OC/C(=C/F)CN)cc3)(CC1)CC2 [compound 78, (E)-N-(4-(((4-((2-(aminomethyl)-3-fluoroallyl)oxy)phenyl)sulfonyl)methyl)bicyclo[2.2.2]octan-1-yl)-N-methylcyclopropanecarboxamide]	7.00 to 7.70
CC(C)N(C)C(=O)C(C)(C)CS(=O)(=O)c1ccc(OC/C(=C/F)CN)cc1 [compound 95, (E)-3-((4-((2-(aminomethyl)-3-fluoroallyl)oxy)phenyl)sulfonyl)-N-isopropyl-N,2,2-trimethylpropanamide]	6.30 to 7.00
CCN(CC(C)CS(=O)(=O)c1ccc(OC/C(=C/F)CN)cc1)C(=O)C(C)C (centres unmarked) [compound 97, (E)-N-(3-((4-((2-(aminomethyl)-3-fluoroallyl)oxy)phenyl)sulfonyl)-2-methylpropyl)-N-ethylisobutyramide]	7.00 to 7.70
CC(C)n1ccc(CS(=O)(=O)c2ccc(OC/C(=C/F)CN)cc2)cc1=O [compound 101, (E)-4-(((4-((2-(aminomethyl)-3-fluoroallyl)oxy)phenyl)sulfonyl)methyl)-1-isopropylpyridin-2(1H)-one]	7.00 to 7.70
NC/C(=C\F)COc1ccc(S(=O)(=O)Cc2cnc(N3CCCC3)nc2)cc1 [compound 103, (E)-3-fluoro-2-((4-(((2-(pyrrolidin-1-yl)pyrimidin-5-yl)methyl)sulfonyl)phenoxy)methyl) prop-2-en-1-amine]	7.00 to 7.70
NC/C(=C\F)COc1ccc(S(=O)(=O)CC2(CN3CCCCC3=O)CC2)cc1 [compound 106, (E)-1-((1-(((4-((2-(aminomethyl)-3-fluoroallyl)oxy)phenyl)sulfonyl)methyl)cyclopropyl)methyl)piperidin-2-one]	7.00 to 7.70
C[C@@H](CS(=O)(=O)c1ccc(OC/C(=C/F)CN)cc1)N1CCCCC1=O [compound 108, (S,E)-1-(1-((4-((2-(aminomethyl)-3-fluoroallyl)oxy)phenyl)sulfonyl)propan-2-yl)piperidin-2-one]	7.00 to 7.70
CC(C)(CN1CCOCC1)CS(=O)(=O)c1ccc(OC/C(=C/F)CN)cc1 [compound 115, (E)-2-((4-((2,2-dimethyl-3-morpholinopropyl)sulfonyl)phenoxy)methyl)-3-fluoroprop-2-en-1-amine]	7.00 to 7.70
NC/C(=C\F)COc1ccc(S(=O)(=O)CN2CCCC2=O)cc1 [compound 117, (E)-1-(((4-((2-(aminomethyl)-3-fluoroallyl)oxy)phenyl)sulfonyl)methyl)pyrrolidin-2-one]	6.30 to 7.00
NC/C(=C\F)COc1ccc(S(=O)(=O)Cn2ccccc2=O)cc1 [compound 121, (E)-1-(((4-((2-(aminomethyl)-3-fluoroallyl)oxy)phenyl)sulfonyl)methyl)pyridin-2(1H)-one]	7.00 to 7.70
CC(C)N1CCN(CS(=O)(=O)c2ccc(OC/C(=C/F)CN)cc2)C(=O)C1 [compound 135, (E)-1-(((4-((2-(aminomethyl)-3-fluoroallyl)oxy)phenyl)sulfonyl)methyl)-4-isopropylpiperazin-2-one]	7.00 to 7.70
NC/C(=C\F)COc1ccc(S(=O)(=O)CC23CC(C(=O)NC4CCC4)(C2)C3)cc1 [compound 138, (E)-3-(((4-((2-(aminomethyl)-3-fluoroallyl)oxy)phenyl)sulfonyl)methyl)-N-cyclobutylbicyclo[1.1.1]pentane-1-carboxamide]	7.00 to 7.70

Other lines, results leading:

pIC50	SMILES
7.00 to 7.70	CC1(C)COC(CS(=O)(=O)c2ccc(OC/C(=C/F)CN)cc2)CO1 (centres unmarked) [compound 2, (E)-2-((4-(((5,5-dimethyl-1,4-dioxan-2-yl)methyl)sulfonyl)phenoxy)methyl)-3-fluoroprop-2-en-1-amine]
7.00 to 7.70	NC/C(=C\F)COc1ccc(S(=O)(=O)CC2CCOCC2)c(F)c1 [compound 6, (E)-3-fluoro-2-((3-fluoro-4-(((tetrahydro-2H-pyran-4-yl)methyl)sulfonyl)phenoxy)methyl) prop-2-en-1-amine]
7.00 to 7.70	NC/C(=C\F)COc1ccc(S(=O)(=O)CC2(O)CCOCC2)cc1 [compound 10, (E)-4-(((4-((2-(aminomethyl)-3-fluoroallyl)oxy)phenyl)sulfonyl)methyl)tetrahydro-2H-pyran-4-ol]
7.00 to 7.70	COC1(CS(=O)(=O)c2ccc(OC/C(=C/F)CN)cc2)CCOCC1 [compound 11, (E)-3-fluoro-2-((4-(((4-methoxytetrahydro-2H-pyran-4-yl)methyl)sulfonyl)phenoxy)methyl) prop-2-en-1-amine]
7.00 to 7.70	NC/C(=C\F)COc1ccc(S(=O)(=O)CC23CCC(C4(NC(=O)C5CC5)CC4)(CC2)CC3)cc1 [compound 16, (E)-N-(1-(4-(((4-((2-(aminomethyl)-3-fluoroallyl)oxy)phenyl)sulfonyl)methyl)bicyclo[2.2.2]octan-1-yl)cyclopropyl) cyclopropanecarboxamide]
7.00 to 7.70	COCC(COC)CS(=O)(=O)c1ccc(OC/C(=C/F)CN)cc1 [compound 25, (E)-3-fluoro-2-((4-((3-methoxy-2-(methoxymethyl)propyl)sulfonyl)phenoxy)methyl)prop-2-en-1-amine]
7.00 to 7.70	NC/C(=C\F)COc1ccc(S(=O)(=O)COC2CCOCC2)cc1 [compound 26, (E)-3-fluoro-2-((4-((((tetrahydro-2H-pyran-4-yl)oxy)methyl)sulfonyl)phenoxy)methyl)prop-2-en-1-amine]
7.00 to 7.70	NC/C(=C\F)COc1ccc(S(=O)(=O)COC2CCN(C(=O)C3CCCC3)CC2)cc1 [compound 27, (E)-(4-(((4-((2-(aminomethyl)-3-fluoroallyl)oxy)phenyl)sulfonyl)methoxy)piperidin-1-yl)(cyclopentyl)methanone]
7.00 to 7.70	COCCOCS(=O)(=O)c1ccc(OC/C(=C/F)CN)cc1 [compound 29, (E)-3-fluoro-2-((4-(((2-methoxyethoxy)methyl)sulfonyl)phenoxy)methyl)prop-2-en-1-amine]
7.00 to 7.70	CC1(COCS(=O)(=O)c2ccc(OC/C(=C/F)CN)cc2)CCOCC1 [compound 31, (E)-3-fluoro-2-((4-((((4-methyltetrahydro-2H-pyran-4-yl)methoxy)methyl)sulfonyl)phenoxy)methyl)prop-2-en-1-amine]
7.00 to 7.70	N#CC1(COCS(=O)(=O)c2ccc(OC/C(=C/F)CN)cc2)CCOCC1 [compound 32, (E)-4-((((4-((2-(aminomethyl)-3-fluoroallyl)oxy)phenyl)sulfonyl)methoxy)methyl)tetrahydro-2H-pyran-4-carbonitrile]
7.00 to 7.70	CC(C)C(=O)N1CCC(C)(COCS(=O)(=O)c2ccc(OC/C(=C/F)CN)cc2)CC1 [compound 33, (E)-1-(4-((((4-((2-(aminomethyl)-3-fluoroallyl)oxy)phenyl)sulfonyl)methoxy)methyl)-4-methylpiperidin-1-yl)-2-methylpropan-1-one]
7.00 to 7.70	CC1(COCS(=O)(=O)c2ccc(OC/C(=C/F)CN)cc2)CCN(C(=O)C(C)(C)C)CC1 [compound 34, (E)-1-(4-((((4-((2-(aminomethyl)-3-fluoroallyl)oxy)phenyl)sulfonyl)methoxy)methyl)-4-methylpiperidin-1-yl)-2,2-dimethylpropan-1-one]
7.00 to 7.70	COCC(COC)OCS(=O)(=O)c1ccc(OC/C(=C/F)CN)cc1 [compound 36, (E)-2-((4-((((1,3-dimethoxypropan-2-yl)oxy)methyl)sulfonyl)phenoxy)methyl)-3-fluoroprop-2-en-1-amine]
7.00 to 7.70	CC(C)(C)C(=O)N1CCC(CS(=O)(=O)c2ccc(OC/C(=C/F)CN)cc2)CC1 [compound 41, (E)-1-(4-(((4-((2-(aminomethyl)-3-fluoroallyl)oxy)phenyl)sulfonyl)methyl)piperidin-1-yl)-2,2-dimethylpropan-1-one]
7.00 to 7.70	CC(C)C(=O)Nc1ccc(CS(=O)(=O)c2ccc(OC/C(=C/F)CN)cc2)cc1 [compound 45, (E)-N-(4-(((4-((2-(aminomethyl)-3-fluoroallyl)oxy)phenyl)sulfonyl)methyl)phenyl)isobutyramide]
7.00 to 7.70	CC(C)C(=O)N1CC(CS(=O)(=O)c2ccc(OC/C(=C/F)CN)cc2)C1 [compound 52, (E)-1-(3-(((4-((2-(aminomethyl)-3-fluoroallyl)oxy)phenyl)sulfonyl)methyl)azetidin-1-yl)-2-methylpropan-1-one]
